# Like-named read-outs stand apart in the source and are kept apart here.
# Tests used:
# [1] = biological target: T1, PI3Kδ (Homo sapiens, UniProt O00329); test: PI3K kinases inhibition in vitro (ADP-Glo), PI3Kδ; assay type: biochemical
# T1 construct: purchased Merck Millipore
# Protocol: (§1) Tested compounds were dissolved in 100% DMSO, and thus obtained solutions were serially diluted in 1× reaction buffer. Recombinant kinase was diluted in a reaction mixture comprising 5× reaction buffer, substrate (1 mM sodium diacetate 4,5-bisphosphate phosphatydylinositol (PIP2) solution in 40 mM Tris buffer), and water. To the wells in a 96-wells plate, 5 μl of compounds solutions and 15 μl of the kinase solution in the reaction mixture were added. To initiate interaction of tested chemical compounds with the enzyme, the plate was incubated for 10 minutes at suitable temperature in a plate thermostat with orbital shaking at 600 rpm. Negative control wells contained all above reagents except tested compound and kinase, and positive control wells contained all above reagents except tested compounds. Enzymatic reaction was initiated by adding 5 μl of 150 μM ATP solution, subsequently the plate was incubated for 1 hour at 25° C. or 30° C. (depending on PI3K isoform tested) in plate thermostat with orbital shaking of the plate contents at 600 rpm. Reaction conditions are presented below in Table 12.
# (§2) Detection of ADP formed in the enzymatic reaction was then performed using ADP-Glo Kinase Assay (Promega). To the wells of a 96-well plate 25 μl of ADP-Glo Reagent were added, and the plate was incubated for 40 minutes at 25° C. in a plate thermostat with orbital shaking at 600 rpm. Then to the wells of 96-well plate 50 μl of Kinase Detection Reagent were added and the plate was incubated for 40 minutes at 25° C. in a plate thermostat with orbital shaking at 600 rpm. After incubation time, luminescence intensity in a well was measured by Victor Light luminometer (Perkin Elmer, Inc.).
# (§3) IC50 values were determined on the basis of luminescence intensity measurements in wells containing tested compounds at different concentrations and in control wells. These values were calculated with Graph Pad 5.03 software by fitting the curve using non-linear regression. Each compound was tested at least in quadruplicates (4 wells) on two 96-well plates using at least 4 wells of each of the controls.
# [2] = biological target: T2, PI3Kα (Homo sapiens, UniProt P42336); test: PI3K kinases inhibition in vitro (ADP-Glo), PI3Kα; assay type: biochemical
# T2 construct: purchased Carna Biosciences
# Protocol: as §1, §2, §3
# [3] = averaged, recombinant kinase, 25° C., 1 h, PIP2 30 μM, read-out: PI3Kδ IC50
# T1 sequence (O00329 whole entry): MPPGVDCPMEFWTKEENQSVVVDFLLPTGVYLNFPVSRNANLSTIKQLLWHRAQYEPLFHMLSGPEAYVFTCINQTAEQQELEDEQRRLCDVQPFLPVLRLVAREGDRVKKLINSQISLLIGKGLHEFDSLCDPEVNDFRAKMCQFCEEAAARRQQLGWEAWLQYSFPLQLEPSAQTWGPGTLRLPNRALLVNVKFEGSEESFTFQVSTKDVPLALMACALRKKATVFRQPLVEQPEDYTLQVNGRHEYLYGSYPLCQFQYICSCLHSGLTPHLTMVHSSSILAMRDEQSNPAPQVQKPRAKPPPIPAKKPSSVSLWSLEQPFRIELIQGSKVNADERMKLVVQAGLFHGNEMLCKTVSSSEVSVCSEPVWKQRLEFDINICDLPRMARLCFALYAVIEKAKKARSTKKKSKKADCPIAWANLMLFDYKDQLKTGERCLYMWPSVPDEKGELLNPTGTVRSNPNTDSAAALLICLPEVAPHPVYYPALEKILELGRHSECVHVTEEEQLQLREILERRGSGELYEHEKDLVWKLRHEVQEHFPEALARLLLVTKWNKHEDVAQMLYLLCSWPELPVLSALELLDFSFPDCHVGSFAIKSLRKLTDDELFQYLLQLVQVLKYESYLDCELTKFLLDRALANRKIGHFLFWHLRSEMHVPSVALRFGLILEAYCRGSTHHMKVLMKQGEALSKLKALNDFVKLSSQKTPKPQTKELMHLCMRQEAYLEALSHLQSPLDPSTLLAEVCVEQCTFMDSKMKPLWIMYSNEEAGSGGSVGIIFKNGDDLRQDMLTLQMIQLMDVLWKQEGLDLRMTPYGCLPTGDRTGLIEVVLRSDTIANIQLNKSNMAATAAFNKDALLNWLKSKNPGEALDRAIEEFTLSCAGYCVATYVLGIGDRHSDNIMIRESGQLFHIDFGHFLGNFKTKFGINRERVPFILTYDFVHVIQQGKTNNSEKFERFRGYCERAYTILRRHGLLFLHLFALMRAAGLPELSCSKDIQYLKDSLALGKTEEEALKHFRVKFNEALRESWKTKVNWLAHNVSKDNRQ
# T1 sequence (P27986 whole entry, further chain): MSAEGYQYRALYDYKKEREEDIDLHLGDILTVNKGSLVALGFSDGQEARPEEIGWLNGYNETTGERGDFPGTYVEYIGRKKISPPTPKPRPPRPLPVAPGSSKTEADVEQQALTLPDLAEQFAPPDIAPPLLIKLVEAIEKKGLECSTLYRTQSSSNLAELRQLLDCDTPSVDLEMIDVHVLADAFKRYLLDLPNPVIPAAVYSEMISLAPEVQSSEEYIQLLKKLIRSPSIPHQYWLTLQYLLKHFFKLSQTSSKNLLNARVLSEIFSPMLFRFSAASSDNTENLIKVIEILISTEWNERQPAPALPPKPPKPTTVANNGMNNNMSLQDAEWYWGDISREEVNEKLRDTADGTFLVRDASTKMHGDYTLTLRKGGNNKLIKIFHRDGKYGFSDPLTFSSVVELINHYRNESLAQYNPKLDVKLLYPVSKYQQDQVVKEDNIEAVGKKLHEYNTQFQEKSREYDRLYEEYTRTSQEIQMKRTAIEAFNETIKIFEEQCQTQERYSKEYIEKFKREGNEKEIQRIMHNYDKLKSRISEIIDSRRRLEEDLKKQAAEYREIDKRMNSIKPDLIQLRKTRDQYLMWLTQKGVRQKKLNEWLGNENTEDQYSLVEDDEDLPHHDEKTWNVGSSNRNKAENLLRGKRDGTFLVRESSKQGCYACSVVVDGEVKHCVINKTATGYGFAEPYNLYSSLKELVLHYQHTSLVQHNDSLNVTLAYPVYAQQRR
# T2 sequence (P42336 whole entry): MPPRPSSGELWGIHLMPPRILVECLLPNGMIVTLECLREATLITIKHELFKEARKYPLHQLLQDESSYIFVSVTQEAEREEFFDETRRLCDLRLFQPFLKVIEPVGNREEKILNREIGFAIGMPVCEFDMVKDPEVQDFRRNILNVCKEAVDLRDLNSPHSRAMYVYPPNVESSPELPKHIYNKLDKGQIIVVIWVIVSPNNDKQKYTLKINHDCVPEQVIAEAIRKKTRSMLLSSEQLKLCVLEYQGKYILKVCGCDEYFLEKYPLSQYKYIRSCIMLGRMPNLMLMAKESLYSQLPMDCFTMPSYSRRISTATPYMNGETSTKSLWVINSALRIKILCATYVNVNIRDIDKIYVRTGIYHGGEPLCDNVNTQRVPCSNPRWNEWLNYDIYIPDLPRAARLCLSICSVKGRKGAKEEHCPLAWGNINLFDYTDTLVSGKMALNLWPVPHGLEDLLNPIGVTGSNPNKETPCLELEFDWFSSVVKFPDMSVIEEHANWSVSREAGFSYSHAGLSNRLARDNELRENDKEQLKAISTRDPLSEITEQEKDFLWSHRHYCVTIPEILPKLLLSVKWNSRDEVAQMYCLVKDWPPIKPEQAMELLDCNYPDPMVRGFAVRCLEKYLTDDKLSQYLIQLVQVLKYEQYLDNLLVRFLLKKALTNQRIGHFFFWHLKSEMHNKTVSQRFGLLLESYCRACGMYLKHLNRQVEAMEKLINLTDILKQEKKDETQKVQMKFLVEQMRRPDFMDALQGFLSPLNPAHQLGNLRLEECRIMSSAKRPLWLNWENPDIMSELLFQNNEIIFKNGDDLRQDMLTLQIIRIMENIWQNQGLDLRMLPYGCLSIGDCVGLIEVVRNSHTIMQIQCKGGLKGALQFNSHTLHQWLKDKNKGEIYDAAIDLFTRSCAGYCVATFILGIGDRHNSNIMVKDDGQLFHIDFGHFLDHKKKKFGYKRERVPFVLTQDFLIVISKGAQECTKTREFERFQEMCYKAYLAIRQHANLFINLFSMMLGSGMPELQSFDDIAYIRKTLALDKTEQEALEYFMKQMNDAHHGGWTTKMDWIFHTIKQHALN
# T2 sequence (P27986 whole entry partner): as the sequence (P27986 whole entry, further chain) above
SMILES,IC50 [1] [µM],IC50 [2] [µM],"IC50 [1, 3] [µM]"
"CS(=O)(=O)N1CCN(Cc2cc3nc(-c4cccc5[nH]ccc45)cc(N4CCOCC4)n3n2)CC1 [Example 2, 5-(1H-indol-4-yl)-2-((4-(methyl-sulphonyl)piperazin-1-yl)methyl)-7-(morpholin-4-yl)pyrazolo[1,5-a]-pyrimidine]",0.1 to 1,> 1,
"CN1CCN(C2CCN(Cc3cc4nc(-c5cccc6[nH]ccc56)cc(N5CCOCC5)n4n3)CC2)CC1 [Example 3, 5-(1H-indol-4-yl)-2-((4-(4-methylpiperazin-1-yl)piperidin-1-yl)methyl)-7-(morpholin-4-yl)pyrazolo[1,5-a] pyrimidine]",< 0.1,> 1,
"COc1ccc(N2CCN(Cc3cc4nc(-c5cccc6[nH]ccc56)cc(N5CCOCC5)n4n3)CC2)cc1 [Example 6, 5-(1H-indol-4-yl)-2-((4-(4-methoxyphenyl)piperazin-1-yl)-methyl)-7-(morpholin-4-yl)-pyrazolo[1,5-a]pyrimidine]",0.1 to 1,> 1,
"CC(C)(C)N1CCN(Cc2cc3nc(-c4cccc5[nH]ncc45)cc(N4CCOCC4)n3n2)CC1 [Example 12, 2-((4-tert-butylpiperazin-1-yl)methyl)-5-(1H-indazol-4-yl)-7-(morpholin-4-yl)pyrazolo[1,5-a]-pyrimidine]",,> 1,< 0.1
"CN1CCN(C2CCN(Cc3cc4nc(-c5c(F)ccc6[nH]ccc56)cc(N5CCOCC5)n4n3)CC2)CC1 [Example 14, 5-(5-fluoro-1H-indol-4-yl)-2-((4-(4-methylpiperazin-1-yl)piperidin-1-yl)methyl)-7-(morpholin-4-yl)-pyrazolo[1,5-a]pyrimidine]",,> 1,< 0.1
"CC(C)(O)C1CCN(Cc2cc3nc(-c4cccc5[nH]ncc45)cc(N4CCOCC4)n3n2)CC1 [Example 15, 2-((4-(2-hydroxypropan-2-yl)-piperidin-1-yl)methyl)-5-(1H-indazol-4-yl)-7-(morpholin-4-yl)-pyrazolo[1,5-a]pyrimidine]",,> 1,0.1 to 1
"CC(C)(O)C1CCN(Cc2cc3nc(-c4cnc(N)nc4)cc(N4CCOCC4)n3n2)CC1 [Example 18, 5-(2-aminopyrimidin-5-yl)-2-((4-(2-hydroxypropan-2-yl)piperidin-1-yl)methyl)-7-(morpholin-4-yl)-pyrazolo[1,5-a]pyrimidine]",,> 1,0.1 to 1
"CN1CCN(Cc2cc3nc(-c4cccc5[nH]ccc45)cc(N4CCOCC4)n3n2)CC1 [Example 21, 5-(1H-indol-4-yl)-2-((4-methyl-piperazin-1-yl)methyl)-7-(morpholin-4-yl)pyrazolo[1,5-a]-pyrimidine]",0.1 to 1,> 1,
"O=S1(=O)CCN(Cc2cc3nc(-c4cccc5[nH]ccc45)cc(N4CCOCC4)n3n2)CC1 [Example 23, 2-((1,1-dioxothio-morpholin-1-yl)-methyl)-5-(1H-indol-4-yl)-7-(morpholin-4-yl)pyrazolo[1,5-a]-pyrimidine]",0.1 to 1,> 1,
"COC(=O)C1CCN(Cc2cc3nc(-c4cccc5[nH]ccc45)cc(N4CCOCC4)n3n2)CC1 [Example 24, Methyl 1-((5-(1H-indol-4-yl)-7-(morpholin-4-yl)pyrazolo[1,5-a]-pyrimidin-2-yl)methyl)piperidin-4-carboxylate]",0.1 to 1,> 1,
"c1cc(-c2cc(N3CCOCC3)n3nc(CN4CCN(CC5CC5)CC4)cc3n2)c2cc[nH]c2c1 [Example 26, 2-((4-(cyclopropylmethyl)piperazin-1-yl)methyl)-5-(1H-indol-4-yl)-7-(morpholin-4-yl)pyrazolo[1,5-a]-pyrimidine]",< 0.1,> 1,
"c1cc(-c2cc(N3CCOCC3)n3nc(CN4CCN(C5CCCC5)CC4)cc3n2)c2cc[nH]c2c1 [Example 27, 2-((4-cyclopentylpiperazin-1-yl)-methyl)-5-(1H-indol-4-yl)-7-(morpholin-4-yl)pyrazolo[1,5-a]-pyrimidine]",< 0.1,> 1,
c1cc(-c2cc(N3CCOCC3)n3nc(CN4CCN(C5COC5)CC4)cc3n2)c2cc[nH]c2c1 [Example 34],< 0.1,> 1,
"c1cc(-c2cc(N3CCOCC3)n3nc(CN4C[C@@H]5C[C@H]4CN5C4COC4)cc3n2)c2cc[nH]c2c1 [Example 36, 5-(1H-indol-4-yl)-2-(((1S, 4S)-2-(oxetan-3-yl)-2,5-diazabicyclo [2.2.1]hept-2-yl)methyl)-7-(morpholin-4-yl)pyrazolo[1,5-a]-pyrimidine]",< 0.1,> 1,
O=C(Nc1ccccc1)NC1CCN(Cc2cc3nc(-c4cccc5[nH]ccc45)cc(N4CCOCC4)n3n2)CC1 [Example 37],0.1 to 1,,
CCNC(=O)NC1CCN(Cc2cc3nc(-c4cccc5[nH]ccc45)cc(N4CCOCC4)n3n2)CC1 [Example 38],0.1 to 1,> 1,
"CCc1nc2ccccc2n1-c1cc(N2CCOCC2)n2nc(CN3CCN(S(C)(=O)=O)CC3)cc2n1 [Example 42, 5-(2-ethylbenzimidazol-1-yl)-2-((4-(methylsulphonyl)piperazin-1-yl)methyl)-7-(morpholin-4-yl)-pyrazolo[1,5-a]pyrimidine]",,> 1,0.1 to 1
"CCc1nc2ccccc2n1-c1cc(N2CCOCC2)n2nc(CN3CCC(N(C)C)CC3)cc2n1 [Example 43, 5-(2-ethylbenzimidazo-1-yl)-2-((4-(dimethylamino)piperidin-1-yl)-methyl)-7-(morpholin-4-yl)-pyrazolo[1,5-a]pyrimidine]",,> 1,0.1 to 1
"CCc1nc2ccccc2n1-c1cc(N2CCOCC2)n2nc(CN3CCN(C(C)(C)C)CC3)cc2n1 [Example 47, 5-(2-ethylbenzimidazol-1-yl)-2-((4-tert-butylpiperazin-1-yl)methyl)-7-(morpholin-4-yl)pyrazolo[1,5-a]-pyrimidine]",,> 1,< 0.1
"Cc1nc2ccccc2n1-c1cc(N2CCOCC2)n2nc(CN3CCN(C(C)(C)C)CC3)cc2n1 [Example 48, 5-(2-methylbenzimidazol-1-yl)-2-((4-tert-butylopiperazin-1-yl)-methyl)-7-(morpholin-4-yl)-pyrazolo[1,5-a]pyrimidine]",,> 1,0.1 to 1
"Cc1nc2ccccc2n1-c1cc(N2CCOCC2)n2nc(CN3CCC(C(C)(C)O)CC3)cc2n1 [Example 49, 5-(2-methylbenzimidazol-1-yl)-2-((4-(2-hydroxypropan-2-yl)-piperidin-1-yl)methyl)-7-(morpholin-4-yl)pyrazolo[1,5-a]-pyrimidine]",,> 1,0.1 to 1
"CC(C)c1nc2ccccc2n1-c1cc(N2CCOCC2)n2nc(CN3CCN(C(C)(C)C)CC3)cc2n1 [Example 52, 5-(2-iso-propylbenzimidazol-1-yl)-2-((4-tert-butylpiperazin-1-yl)-methyl)-7-(morpholin-4-yl)-pyrazolo[1,5-a]pyrimidine]",,> 1,0.1 to 1
"CC(C)c1nc2ccccc2n1-c1cc(N2CCOCC2)n2nc(CN3CCC(C(C)(C)O)CC3)cc2n1 [Example 53, 5-(2-iso-propylbenzimidazol-1-yl)-2-((4-(2-hydroxypropan-2-yl)-piperidin-1-yl)methyl)-7-(morpholin-4-yl)pyrazolo[1,5-a]-pyrimidine]",,> 1,0.1 to 1
"CC(C)(C)N1CCN(Cc2cc3nc(-n4c(C5CC5)nc5ccccc54)cc(N4CCOCC4)n3n2)CC1 [Example 54, 5-(2-cyclopropylbenzimidazol-1-yl)-2-((4-tert-butylpiperazin-1-yl)-methyl)-7-(morpholin-4-yl)-pyrazolo[1,5-a]pyrimidine]",,> 1,0.1 to 1
"CC(C)(O)C1CCN(Cc2cc3nc(-n4c(C5CC5)nc5ccccc54)cc(N4CCOCC4)n3n2)CC1 [Example 55, 5-(2-cyclopropylbenzimidazol-1-yl)-2-((4-(2-hydroxypropan-2-yl)-piperidin-1-yl)methyl)-7-(morpholin-4-yl)pyrazolo[1,5-a]-pyrimidine]",,> 1,0.1 to 1
"C[C@@H]1CN(C2CN(Cc3cc4nc(-n5c(C(F)F)nc6ccccc65)cc(N5CCOCC5)n4n3)C2)C[C@H](C)O1 [Example 65, 5-(2-(difluoromethyl)benzimidazol-1-yl)-2-((3-((2R,6S)-2,6-dimethylmorpholin-4-yl)azetidin-1-yl)methyl)-7-(morpholin-4-yl)-pyrazolo[1,5-a]pyrimidine]",,,< 0.1
"COC1CN(C2CN(Cc3cc4nc(-n5c(C(F)F)nc6ccccc65)cc(N5CCOCC5)n4n3)C2)C1 [Example 67, 5-(2-(difluoromethyl)benzimidazol-1-yl)-2-((3-(3-methoxyazetidin-1-yl)azetidin-1-yl)methyl)-7-(morpholin-4-yl)pyrazolo[1,5-a]-pyrimidine]",,,< 0.1

# From patent publication US10138247B2, “7-(morpholin-4-yl)pyrazole[1,5-A]pyrimidine derivatives as PI3 kinase inhibitors” (priority 2015, dated 2018)
